Source: patent US7932270B2 (Cytokinetics, Inc., priority 2006, dated 2011)
pIC50: −log10 of the molar value.

Target: T1, chicken gizzard smooth muscle myosin subfragment-1 chemically crosslinked to cardiac or skeletal actin (Gallus gallus, UniProt P10587)
T1 construct: chicken gizzard smooth muscle myosin subfragment-1; from tissue; host or cells: chicken gizzard
Experiment: Smooth muscle myosin ATPase dose response assay (pyruvate kinase/horseradish peroxidase/pyruvate oxidase-coupled, amplex red fluorescence)
Type: biochemical
Conditions: read-out: IC50 Arithmetic Mean
In short: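 EDC/NHS-crosslinked S1–actin, amount set per prep by rate titration. Buffer: 12 mM K-PIPES pH 7.00 (22° C), 100 mM KCl, 2 mM MgCl2, 0.15 mM ATP, 0.1 mM PEP, 2 mM KPi, 0.1 mM amplex red. Read ex 480/em 615 nm; IC50 = midpoint, 4-param Hill fit.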

T1 sequence (P02607 2-151): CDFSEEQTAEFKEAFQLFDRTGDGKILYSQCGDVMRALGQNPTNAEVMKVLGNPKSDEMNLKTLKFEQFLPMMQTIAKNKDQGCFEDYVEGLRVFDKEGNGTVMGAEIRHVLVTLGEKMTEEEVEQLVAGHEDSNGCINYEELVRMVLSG
T1 sequence (P10587 84-789): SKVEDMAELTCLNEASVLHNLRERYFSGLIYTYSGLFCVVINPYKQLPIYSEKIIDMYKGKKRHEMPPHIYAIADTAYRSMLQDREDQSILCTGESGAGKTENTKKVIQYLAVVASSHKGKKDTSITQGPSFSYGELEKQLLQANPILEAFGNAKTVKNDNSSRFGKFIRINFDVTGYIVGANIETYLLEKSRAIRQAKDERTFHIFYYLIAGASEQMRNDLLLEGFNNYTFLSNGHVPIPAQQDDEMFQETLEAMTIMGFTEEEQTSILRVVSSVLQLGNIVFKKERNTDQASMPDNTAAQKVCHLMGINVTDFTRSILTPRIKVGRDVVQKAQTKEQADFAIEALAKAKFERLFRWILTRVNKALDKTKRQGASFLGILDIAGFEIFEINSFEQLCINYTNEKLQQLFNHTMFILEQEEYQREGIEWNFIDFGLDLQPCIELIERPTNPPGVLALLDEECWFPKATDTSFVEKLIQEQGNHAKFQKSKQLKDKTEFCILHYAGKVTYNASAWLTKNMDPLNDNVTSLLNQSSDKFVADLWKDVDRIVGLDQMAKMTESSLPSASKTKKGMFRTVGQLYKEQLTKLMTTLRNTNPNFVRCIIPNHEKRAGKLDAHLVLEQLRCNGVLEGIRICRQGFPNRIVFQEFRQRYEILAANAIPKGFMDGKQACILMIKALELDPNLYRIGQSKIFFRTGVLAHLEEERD

CNC(=O)[C@H](C)NC(=O)c1ccc(-c2ccccc2C#N)nc1NCCc1cccc(F)c1 [(2S)-2-[(6-(2-cyanophenyl)-2-{[2-(3-fluorophenyl)ethyl]amino}(3-pyridyl))carbonylamino]-N-methylpropanamide]
pIC50: 6.01

CC(=O)[C@H](C)CNC(=O)c1cc(F)c(-c2cnn(C)c2)nc1NCCc1cccc(F)c1 [N-((2R)-2-methyl-3-oxobutyl)(5-fluoro-2-{[2-(3-fluorophenyl)ethyl]amino}-6-(1-methylpyrazol-4-yl)(3-pyridyl))carboxamide]
pIC50: 6.96

Cn1cc(-c2ccc(C(=O)NC[C@H]3CCCN3C(=O)CCCN)c(NCCc3cccc(F)c3)n2)cn1 [N-{[(2R)-1-(4-aminobutanoyl)pyrrolidin-2-yl]methyl}(2-{[2-(3-fluorophenyl)ethyl]amino}-6-(1-methylpyrazol-4-yl)(3-pyridyl))carboxamide]
pIC50: 6.45

N#Cc1ccccc1-c1ccc(C(=O)NC[C@H]2CCCN2C(=O)CCCN)c(NCCC2=CCCCC2)n1 [N-{[(2R)-1-(4-aminobutanoyl)pyrrolidin-2-yl]methyl}{6-(2-cyanophenyl)-2-[(2-cyclohex-1-enylethyl)amino](3-pyridyl)}carboxamide]
pIC50: 6.88

N#Cc1ccccc1-c1nc(NCCc2cccc(F)c2)c(C(=O)NC[C@H]2CCCN2C(=O)CCN)cc1F [N-{[(2R)-1-(3-aminopropanoyl)pyrrolidin-2-yl]methyl}(6-(2-cyanophenyl)-5-fluoro-2-{[2-(3-fluorophenyl)ethyl]amino}(3-pyridyl))carboxamide]
pIC50: 7.38

O=C(NCc1ccncc1)c1ccc(-c2ccccc2)nc1NCCc1ccccn1 [{6-phenyl-2-[(2-(2-pyridyl)ethyl)amino](3-pyridyl)}-N-(4-pyridylmethyl)carboxamide]
pIC50: 5.89

Cc1ccc(CNC(=O)c2ccc(-c3ccccc3C#N)nc2NCCc2cccc(F)c2)cc1 [(6-(2-cyanophenyl)-2-{[2-(3-fluorophenyl)ethyl]amino}(3-pyridyl))-N-[(4-methylphenyl)methyl]carboxamide]
pIC50: 4.61

CC(C)(C)OC(=O)NCCCN1C(=O)CCCCC1CNC(=O)c1ccc(-c2ccccc2C#N)nc1NCCc1cccc(F)c1 (stereo not shown) [N-[(1-{3-[(tert-butoxy)carbonylamino]propyl}-7-oxoazaperhydroepin-2-yl)methyl](6-(2-cyanophenyl)-2-{[2-(3-fluorophenyl)ethyl]amino}(3-pyridyl))carboxamide]
pIC50: 4.77

Cn1cc(-c2nc(NCCc3cccc(F)c3)c(C(=O)NC[C@H]3CCCN3C(=O)[C@@H](N)CO)cc2F)cn1 [N-{[(2R)-1-((2S)-2-amino-3-hydroxypropanoyl)pyrrolidin-2-yl]methyl}(5-fluoro-2-{[2-(3-fluorophenyl)ethyl]amino}-6-(1-methylpyrazol-4-yl)(3-pyridyl))carboxamide]
pIC50: 7.14

N#Cc1sccc1-c1ccc(C(=O)NCc2cccnc2)c(NCCc2cccc(F)c2)n1 [(6-(2-cyano(3-thienyl))-2-{[2-(3-fluorophenyl)ethyl]amino}(3-pyridyl))-N-(3-pyridylmethyl)carboxamide]
pIC50: 7.48

CC(=O)N1CCC(CNC(=O)c2ccc(-c3ccccc3C#N)nc2NCCc2cccc(F)c2)C1 (stereo not shown) [N-[(1-acetylpyrrolidin-3-yl)methyl](6-(2-cyanophenyl)-2-{[2-(3-fluorophenyl)ethyl]amino}(3-pyridyl))carboxamide]
pIC50: 6.48

N#Cc1ccccc1-c1ccc(C(=O)NCc2ncccc2C(F)(F)F)c(NCCc2cccc(F)c2)n1 [(6-(2-cyanophenyl)-2-{[2-(3-fluorophenyl)ethyl]amino}(3-pyridyl))-N-{[3-(trifluoromethyl)(2-pyridyl)]methyl}carboxamide]
pIC50: 6.22

CC1CN(C(=O)c2cc(F)c(-c3cnn(C)c3)nc2NCCc2cccc(F)c2)C1 [5-fluoro-2-{[2-(3-fluorophenyl)ethyl]amino}-6-(1-methylpyrazol-4-yl)(3-pyridyl) 3-methylazetidinyl ketone]
pIC50: 4.98

N#Cc1ccccc1-c1ccc(C(=O)NC[C@H]2CCCN2C(=O)[C@@H](N)CCCN)c(NCCc2cccc(F)c2)n1 [N-{[(2R)-1-((2S)-2,5-diaminopentanoyl)pyrrolidin-2-yl]methyl}(6-(2-cyanophenyl)-2-{[2-(3-fluorophenyl)ethyl]amino}(3-pyridyl))carboxamide]
pIC50: 7.28

N#Cc1ccccc1-c1ccc(C(=O)NCc2cccnc2)c(NCCc2cc(F)cc(F)c2)n1 [(2-{[2-(3,5-difluorophenyl)ethyl]amino}-6-(2-cyanophenyl)(3-pyridyl))-N-(3-pyridylmethyl)carboxamide]
pIC50: 7.39

Cn1cc(-c2nc(NCCc3cccc(F)c3)c(C(=O)NC[C@H]3CCCN3C(=O)CCCN)cc2F)cn1 [N-{[(2R)-1-(4-aminobutanoyl)pyrrolidin-2-yl]methyl}(5-fluoro-2-{[2-(3-fluorophenyl)ethyl]amino}-6-(1-methylpyrazol-4-yl)(3-pyridyl))carboxamide]
pIC50: 7.06

Cn1cc(-c2nc(NCCc3cccc(F)c3)c(C(=O)NC[C@H]3CCCN3)cc2C#N)cn1 [N-[((2R)pyrrolidin-2-yl)methyl](5-cyano-2-{[2-(3-fluorophenyl)ethyl]amino}-6-(1-methylpyrazol-4-yl)(3-pyridyl))carboxamide]
pIC50: 6.55

COC(=O)CCC(=O)N1CC[C@@H]1CNC(=O)c1ccc(-c2ccccc2C#N)nc1NCCc1cccc(F)c1 [methyl 4-((2R)-2-{[(6-(2-cyanophenyl)-2-{[2-(3-fluorophenyl)ethyl]amino}(3-pyridyl))carbonylamino]methyl}azetidinyl)-4-oxobutanoate]
pIC50: 6.28

N#Cc1ccccc1-c1ccc(C(=O)NC[C@@H]2CN(CCCN)CC(=O)N2)c(NCCc2cccc(F)c2)n1 [N-{[(2R)-4-(3-aminopropyl)-6-oxopiperazin-2-yl]methyl}(6-(2-cyanophenyl)-2-{[2-(3-fluorophenyl)ethyl]amino}(3-pyridyl))carboxamide]
pIC50: 5.34

CC(C)(N)CNC(=O)c1ccc(-c2ccccc2C#N)nc1NCCc1cccc(F)c1 [N-(2-amino-2-methylpropyl)(6-(2-cyanophenyl)-2-{[2-(3-fluorophenyl)ethyl]amino}(3-pyridyl))carboxamide]
pIC50: 6.18

O=C(NCc1cccnc1)c1ccc(-c2cccc(F)c2)nc1NCCc1ccccn1 [{6-(3-fluorophenyl)-2-[(2-(2-pyridyl)ethyl)amino](3-pyridyl)}-N-(3-pyridylmethyl)carboxamide]
pIC50: 6.04

COC(=O)[C@H](C)CNC(=O)c1ccc(-c2ccccc2C#N)nc1NCCc1cccc(F)c1 [methyl (2R)-3-[(6-(2-cyanophenyl)-2-{[2-(3-fluorophenyl)ethyl]amino}(3-pyridyl))carbonylamino]-2-methylpropanoate]
pIC50: 6.73

Cn1cc(-c2ccc(C(=O)NC[C@H]3CCCN3C(=O)CO)c(NCCc3cccc(F)c3)n2)cn1 [N-{[(2R)-1-(2-hydroxyacetyl)pyrrolidin-2-yl]methyl}(2-{[2-(3-fluorophenyl)ethyl]amino}-6-(1-methylpyrazol-4-yl)(3-pyridyl))carboxamide]
pIC50: 5.75

CN1CCNC[C@@H]1CNC(=O)c1ccc(-c2ccccc2C#N)nc1NCCc1cccc(F)c1 [N-[((2R)-1-methylpiperazin-2-yl)methyl](6-(2-cyanophenyl)-2-{[2-(3-fluorophenyl)ethyl]amino}(3-pyridyl))carboxamide]
pIC50: 4.80

O=C(NCc1cccnc1)c1ccc(-c2ccc(CO)cc2)nc1NCCc1ccccn1 [{6-[4-(hydroxymethyl)phenyl]-2-[(2-(2-pyridyl)ethyl)amino](3-pyridyl)}-N-(3-pyridylmethyl)carboxamide]
pIC50: 5.61

O=C(NCc1cccnc1)c1ccc(-c2ccccc2F)nc1NCCc1ccccn1 [{6-(2-fluorophenyl)-2-[(2-(2-pyridyl)ethyl)amino](3-pyridyl)}-N-(3-pyridylmethyl)carboxamide]
pIC50: 5.88

N#Cc1ccccc1-c1ccc(C(=O)NC[C@H]2CNCCN2C(=O)CCCN)c(NCCc2cccc(F)c2)n1 [N-{[(2R)-1-(4-aminobutanoyl)piperazin-2-yl]methyl}(6-(2-cyanophenyl)-2-{[2-(3-fluorophenyl)ethyl]amino}(3-pyridyl))carboxamide]
pIC50: 5.26

O=C(NCc1cccnc1)c1ccc(-c2ccccc2)nc1NCCc1ccccc1O [(2-{[2-(2-hydroxyphenyl)ethyl]amino}-6-phenyl(3-pyridyl))-N-(3-pyridylmethyl)carboxamide]
pIC50: 5.61

O=C1CNCC(CNC(=O)c2ccc(-c3cn[nH]c3)nc2NCCc2cccc(F)c2)N1 (stereo not shown) [(2-{[2-(3-fluorophenyl)ethyl]amino}-6-pyrazol-4-yl(3-pyridyl))-N-[(6-oxopiperazin-2-yl)methyl]carboxamide]
pIC50: 6.01

O=C(NCc1cccnc1)c1ccc(-c2ccccc2)nc1NCCc1ccccc1 [{6-phenyl-2-[(2-phenylethyl)amino](3-pyridyl)}-N-(3-pyridylmethyl)carboxamide]
pIC50: 6.82

COC(=O)c1cccc(CCNc2nc(-c3ccccc3)ccc2C(=O)NCc2cccnc2)c1 [methyl 3-[2-({6-phenyl-3-[N-(3-pyridylmethyl)carbamoyl]-2-pyridyl}amino)ethyl]benzoate]
pIC50: 4.55

N#Cc1ccccc1-c1ccc(C(=O)NCC2CCNC2)c(NCCc2cccc(F)c2)n1 (stereo not shown) [(6-(2-cyanophenyl)-2-{[2-(3-fluorophenyl)ethyl]amino}(3-pyridyl))-N-(pyrrolidin-3-ylmethyl)carboxamide]
pIC50: 6.02

O=C(NC[C@H]1CCCN1C(=O)CCCO)c1ccc(-c2cn[nH]c2)nc1NCCc1cccc(F)c1 [N-{[(2R)-1-(4-hydroxybutanoyl)pyrrolidin-2-yl]methyl}(2-{[2-(3-fluorophenyl)ethyl]amino}-6-pyrazol-4-yl(3-pyridyl))carboxamide]
pIC50: 6.02

COC(=O)[C@H](C)CNC(=O)c1cc(F)c(-c2cn[nH]c2)nc1NCCc1cccc(F)c1 [methyl (2R)-3-[(5-fluoro-2-{[2-(3-fluorophenyl)ethyl]amino}-6-pyrazol-4-yl(3-pyridyl))carbonylamino]-2-methylpropanoate]
pIC50: 7.14
